Reference: patent US20230150951A1, “2,5- OR 2,6-DISUBSTITUTED HYDROQUINONE DERIVATIVES WITH AT LEAST ONE CARBOXY, SULFO OR AMIDO GROUP USEFUL AS MEDICAMENTS” (OM PHARMA SA, priority 2020, published 2023)

How the values were obtained:
[1] = system: thioglycolate-induced peritonitis; assay: Thioglycolate-induced peritonitis murine model; type: in vivo, C57BL/6J mice; settings: 50 mg/kg i.p. 1 h prior to thioglycolate
Experimental: Therapeutic efficacy of the compounds of the present invention was assessed using thioglycolate-induced peritonitis murine models as described by Cook A D et al. (J Immunol. 2003; 171(9):4816-4823) and Tsai J M et al. (Blood Adv. 2019; 3(18):2713-2721. doi: 10.1182/bloodadvances.2018024026).
C57BL/6J mice were injected intraperitoneally (i.p.) with 1 mL of compounds at 50 mg/kg 1 h prior to the induction of peritonitis. Peritonitis was then induced with 1 ml of sterile thioglycolate broth 4% (wt/vol) or PBS as control. After 3 h, mice were anesthetized by i.p. injection with a solution of PBS containing 5 mg/ml ketamine and 1 mg/ml xylazine and peritoneal cavities were washed with 5 ml ice-cold sterile Ca2+/Mg2+-free HBSS 1×containing EDTA 2 mM. Peritoneal exudate cells (PECs) were centrifuged at 1200 rpm for 5 min at 4° C. and red cells lysed. PECs were washed, resuspended in PBS 10% FBS, incubated with anti-CD16/CD32 and mIgG FcR blockers and then stained with fluorescently conjugated antibodies to characterize migrated leukocytes (anti-CD45, anti-CD11b, anti-Ly6G, anti-CD8a, anti-CD4, anti-CD3). Cell viability was measured by 7-AAD exclusion. Specimens were acquired by flow cytometry using MACSQuant Analyzer (Miltenyi Biotec) and analysed using FlowJo software.
Animals: four C57BL/6J mice per group for each compound versus four vehicle treated mice.
Read out was done 1 h after thioglycolate injection.
Readout method: flow cytometry to characterise migrated leukocytes using anti-CD45, anti-CD11b, anti-Ly6G, anti-CD8a, anti-CD4, anti-CD3.
Results and statistical analysis: Results were analysed using FlowJo software. Data were shown as mean±SEM. Two-tailed Student's t test using a significance level of 0.05 is used for the statistical analysis.

[2] = system: human retinal endothelial cells (HRECs); assay: Inner blood retinal barrier: HREC monolayer permeability to FITC-dextran; type: cell-based; settings: for p < 0.05 (HREC permeability versus diabetic milieu): IL-β, after 90 min
Text: The mechanisms of actions involved in the anti-permeability effect of the tested treatments were explored by assessing permeability to fluorescent dextran and proinflammatory cytokines production using their mRNA expression levels by RT-PCR.
Inner Blood Retinal Barrier conditions: primary human retinal endothelial cells (HRECs) were obtained from a vial of cryopreserved cells purchased from Innoprot (Vizcay, Spain). These cells were isolated from human retinal tissue of cadaveric eyes digested with 0.1 mg/mL collagenase type I at 37° C. for 1 hour. Then, endothelial cells were finally selected with CD31 antibody-coated magnetic beads (DynaBeads; Dynal, Oslo, Norway). HRECs were thawed in the laboratory and cultured in endothelial basal medium (EBM) containing, 5.5 mM D-glucose, 5% FBS (Fetal Bovine Serum), 100 U/mL penicillin, 100 μg/mL streptomycin, and ECG (Endothelial Cell Growth Supplement) supplement (Innoprot, Vizcay, Spain). Human fibronectin (MerckMillipore, Madrid, Spain) at 5 μg/mL was used for cell attachment. Cells at passages 2-3 will be used for the experiments. For experimentation, HRECs were grown to confluence and then cell culture media was changed to medium supplemented with 1% FBS for 24 h and then exposed to different treatments.
Conditions treatments: The same conditions specified for the experiment in ARPE-19 cells were used.
Measurement of HREC permeability: Permeability in HREC monolayers were obtained on permeable supports at 12×10^5 cells/well (24 wells, PCF filters, Merk Millipore). Inserts were incubated for 48 hours at 37° C. in 5% CO2-air to form the monolayer. At the end, medium was serum depleted 24 h before to proceed with the treatments. The lower chamber was filled with 600 μL of complete EBM medium and the upper chamber with 100 μL of cell suspension in serum depleted (1%).
To detect changes in the permeability, 100 μg/ml of fluorescent FITC-DEXTRAN (Sigma, Madrid, Spain), was added to the upper side of the insert. Aliquots of 200 μL from the basal compartment was read in a SpectraMax Gemini (Molecular Devices, Sunnyvale, Calif.) at a wavelength of excitation/emission 485/528 nm every 30 min. Finally, the concentration of dextran was determined by extrapolation of the fluorescence reads in a standard curve. Each condition was tested in triplicate.

[3] = system: STZ-induced diabetes model; assay: STZ-induced diabetes and diabetic wound healing model; type: in vivo, CD-1 mice; settings: IV; vs induced vehicle controls
Experimental: Diabetes murine models using streptozotocin (STZ-induced diabetes) were used to assess efficacy of compounds of the present invention for a diabetic wound healing and generate tissue samples to allow post in-life analysis of skin tissue.
These were purchased from Charles River and acclimated for 7 days upon arrival.
Aseptic technique and dosing: Although animals to be used in this study are immuno-competent, preparation of dosing solutions and dosing/weighing of animals were carried out in a sterile biosafety cabinet. IV dosing: Compounds were formulated in 5% DMSO: 10% Solutol: 10% PEG400: 75% PBS and pH adjusted to 7 with 0.5M NaOH solution. PO dosing: formulation is in water.
Animals were anaethetised and a full thickness 6 mm wound created using a sterilized biopsy punch. Wounds were imaged (Days 0). Animals were treated and imaged every 2 days out to day 14 (when control, non-diabetic mouse wounds were healed). Wound images were digitally assessed for area of wound and percentage closure versus time plotted graphically.
Treatment will continue for 2 weeks (14 days). Animal numbers in brackets are dosed for 7 days, then sampled for mid-study PD analysis.
Mid Study sampling: Following 7 days dosing 3 animals per group were killed and wound tissue removed and divided into 2 sections (A) and (B):
(A) First section is FFPE and stained with the following: H&E, Masson's Trichrome, CD31, TGF-β.
(B) Second section are homogenised and used for the following ELISAs: SOD, GTPx, Catalase, TNF-α, IL-6, TGF-β levels.

[4] = No 3-5: 25 mM D-Gluc + compound 25 μg/mL
[5] = No 6-8: 25 mM D-Gluc + compound 50 μg/mL + VEGF, TNF-α, IL-β (so in the source)
[6] = No 11-13: 25 mM D-Gluc + compound 25 μg/mL + VEGF, TNF-α, IL-β (diabetic milieu)
[7] = No 11-13: compound 25 μg/mL + VEGF, TNF-α
[8] = No 14-16: 25 mM D-Gluc + compound 50 μg/mL + VEGF, TNF-α, IL-β (diabetic milieu)

O=C(O)c1cc(NC(=O)c2cc(O)c(C(=O)Nc3ccc(O)c(C(=O)O)c3)cc2O)ccc1O [Ic-007a, 5-(4-(3-carboxy-4-hydroxyphenylaminocarbonyl)-2,5-dihydroxybenzamido)-2-hydroxy benzoic acid]
% of reduction, CD4+ lymphocytes, treated over vehicle treated mice [1]: 35% | % of reduction, CD8+ lymphocytes, treated over vehicle treated mice [1]: 71% | % of reduction, Leukocytes (CD45+ cells), treated over vehicle treated mice [1]: 48% | % of reduction, PMNs (CD11b-Ly6G double + cells), treated over vehicle treated mice [1]: 80% | Cell counts, CD4+ lymphocytes, treated mice ([1]; peritoneal exudate cells): 1.03 × 10^4 | Cell counts, CD8+ lymphocytes, treated mice ([1]; peritoneal exudate cells): 0.54 × 10^4 | Cell counts, Leukocytes (CD45+ cells), treated mice ([1]; peritoneal exudate cells): 31.3 × 10^4 | Cell counts, PMNs (CD11b-Ly6G double + cells), treated mice ([1]; peritoneal exudate cells): 2.03 × 10^4 | % permeability HREC [2, 4]: 126.3 ± 8.3% | % permeability HREC [2, 5]: 127.4 ± 2.1% | % permeability HREC [2, 6]: 111.6 ± 24.2% | p < 0.05 (HREC permeability versus diabetic milieu) [2, 7]: * (* p < 0.05 for FITC dextran leakage measured after 90 min in [ng/mL/cm^2] in comparison with diabetic milieu (25 mM D-Gluose + VEGF, TNF-α, IL-β)) | % permeability HREC [2, 8]: 159.0 ± 23.9%

O=C(O)c1cc(O)cc(CS(=O)(=O)Cc2cc(O)cc(C(=O)O)c2O)c1O [IVc-059a, 3-((2,5-Dihydroxy-3-carboxyphenyl)methylsulfonylmethyl)-2,5-dihydroxybenzoic acid]
% of reduction, CD4+ lymphocytes, treated over vehicle treated mice [1]: 6.0% | % of reduction, CD8+ lymphocytes, treated over vehicle treated mice [1]: 23.0% | % of reduction, Leukocytes (CD45+ cells), treated over vehicle treated mice [1]: 4.0% | % of reduction, PMNs (CD11b-Ly6G double + cells), treated over vehicle treated mice [1]: −13.0% | % permeability HREC [2, 4]: 109.9 ± 24.7% | % permeability HREC [2, 5]: 135.4 ± 6.7% | % permeability HREC [2, 6]: 124.0 ± 6.3% | p < 0.05 (HREC permeability versus diabetic milieu) [2, 7]: * (* p < 0.05 for FITC dextran leakage measured after 90 min in [ng/mL/cm^2] in comparison with diabetic milieu (25 mM D-Gluose + VEGF, TNF-α, IL-β)) | % permeability HREC [2, 8]: 115.3 ± 14.7% | p < 0.05 (HREC permeability versus diabetic milieu) ([2]; No 14-16: compound 50 μg/mL + VEGF, TNF-α): * (* p < 0.05 for FITC dextran leakage measured after 90 min in [ng/mL/cm^2] in comparison with diabetic milieu (25 mM D-Gluose + VEGF, TNF-α, IL-β)) | Blood glucose levels [3]: significant reduction

O=C(O)c1cc(O)c(CN(Cc2cc(O)c(C(=O)O)cc2O)Cc2cc(O)c(C(=O)O)cc2O)cc1O [IIIc-061a, Tris(4-carboxy-2,5-dihydroxyphenylmethyl)amine]
% of reduction, CD4+ lymphocytes, treated over vehicle treated mice [1]: 42.9% | % of reduction, CD8+ lymphocytes, treated over vehicle treated mice [1]: 33.3% | % of reduction, Leukocytes (CD45+ cells), treated over vehicle treated mice [1]: −2.4% | % of reduction, PMNs (CD11b-Ly6G double + cells), treated over vehicle treated mice [1]: −8.3% | Blood glucose levels [3]: significant reduction

O=C(O)c1cc(NC(=O)c2cc(O)cc(C(=O)Nc3ccc(O)c(C(=O)O)c3)c2O)ccc1O [IIc-007a, 5-(3-(3-carboxy-4-hydroxyphenylaminocarbonyl)-2,5-dihydroxybenzamido)-2-hydroxy benzoic acid]
% of reduction, CD4+ lymphocytes, treated over vehicle treated mice [1]: 40.0% | % of reduction, CD8+ lymphocytes, treated over vehicle treated mice [1]: 20.0% | % of reduction, Leukocytes (CD45+ cells), treated over vehicle treated mice [1]: 11.8% | % of reduction, PMNs (CD11b-Ly6G double + cells), treated over vehicle treated mice [1]: 27.3% | % permeability HREC [2, 4]: 136.3 ± 16.7% | % permeability HREC [2, 5]: 147.7 ± 17.6% | % permeability HREC [2, 6]: 135.8 ± 16.6% | p < 0.05 (HREC permeability versus diabetic milieu) [2, 7]: * (* p < 0.05 for FITC dextran leakage measured after 90 min in [ng/mL/cm^2] in comparison with diabetic milieu (25 mM D-Gluose + VEGF, TNF-α, IL-β)) | % permeability HREC [2, 8]: 145.2 ± 8.8%

O=C(O)c1cc(O)c(C(=O)Nc2ccccc2C(=O)O)cc1O [Ia-001a, 4-(2-carboxyphenylaminocarbonyl)-2,5-dihydroxybenzoic acid]
Blood glucose levels [3]: significant reduction
